In ChEMBL document CHEMBL3045821, “Microwave-assisted synthesis of 3-indolyl substituted 4H-chromenes catalyzed by DMAP and their antimicrobial activity” (2012):
In brackets after ≈: the same amount, converted by molar mass.

system: Candida albicans; assay: Antifungal activity against Candida albicans MTCC 227 after 24 to 48 hr by broth microdilution method; type: functional

Compound	MIC [µg/mL]
COc1ccc(-c2[nH]c3ccccc3c2C2C(C#N)=C(N)OC3=C2C(=O)CC(C)(C)C3)cc1 (centres undefined)	500 (≈ 1140 µM)
N#CC1=C(N)OC2=C(C(=O)CCC2)C1c1c(-c2ccc(F)cc2)[nH]c2ccccc12 (centres undefined)	500 (≈ 1250 µM)
CC1(C)CC(=O)C2=C(C1)OC(N)=C(C#N)C2c1c(-c2ccc(Cl)cc2)[nH]c2ccccc12 (centres undefined)	> 1000
CC1(C)CC(=O)C2=C(C1)OC(N)=C(C#N)C2c1c(-c2ccc(F)cc2)[nH]c2ccccc12 (centres undefined)	1000 (≈ 2340 µM)
N#CC1=C(N)OC2=C(C(=O)CCC2)C1c1c(-c2ccc([N+](=O)[O-])cc2)[nH]c2ccccc12 (centres undefined)	200 (≈ 469 µM)
NYSTATIN	100
CC1(C)CC(=O)C2=C(C1)OC(N)=C(C#N)C2c1c(-c2ccc(S(C)(=O)=O)cc2)[nH]c2ccccc12 (centres undefined)	250 (≈ 513 µM)
N#CC1=C(N)OC2=C(C(=O)CCC2)C1c1c(-c2ccccc2)[nH]c2ccccc12 (centres undefined)	1000 (≈ 2620 µM)

system: Aspergillus fumigatus; assay: Antifungal activity against Aspergillus fumigatus MTCC 3008 after 24 to 48 hr by broth microdilution method; type: functional

Compound	MIC [µg/mL]
COc1ccc(-c2[nH]c3ccccc3c2C2C(C#N)=C(N)OC3=C2C(=O)CC(C)(C)C3)cc1 (centres undefined)	> 1000
N#CC1=C(N)OC2=C(C(=O)CCC2)C1c1c(-c2ccc(F)cc2)[nH]c2ccccc12 (centres undefined)	1000 (≈ 2500 µM)
CC1(C)CC(=O)C2=C(C1)OC(N)=C(C#N)C2c1c(-c2ccc(Cl)cc2)[nH]c2ccccc12 (centres undefined)	> 1000
CC1(C)CC(=O)C2=C(C1)OC(N)=C(C#N)C2c1c(-c2ccc(F)cc2)[nH]c2ccccc12 (centres undefined)	250 (≈ 585 µM)
N#CC1=C(N)OC2=C(C(=O)CCC2)C1c1c(-c2ccc([N+](=O)[O-])cc2)[nH]c2ccccc12 (centres undefined)	500 (≈ 1170 µM)
NYSTATIN	100
CC1(C)CC(=O)C2=C(C1)OC(N)=C(C#N)C2c1c(-c2ccc(S(C)(=O)=O)cc2)[nH]c2ccccc12 (centres undefined)	500 (≈ 1030 µM)
N#CC1=C(N)OC2=C(C(=O)CCC2)C1c1c(-c2ccccc2)[nH]c2ccccc12 (centres undefined)	500 (≈ 1310 µM)

system: Escherichia coli; assay: Antibacterial activity against Escherichia coli MTCC 443 after 24 to 48 hr by broth microdilution method; type: functional

Compound	MIC [µg/mL]
O=C(O)c1cn(C2CC2)c2cc(N3CCNCC3)c(F)cc2c1=O [CIPROFLOXACIN]	25 (≈ 75.4 µM)
COc1ccc(-c2[nH]c3ccccc3c2C2C(C#N)=C(N)OC3=C2C(=O)CC(C)(C)C3)cc1 (centres undefined)	500 (≈ 1140 µM)
CC1(C)S[C@@H]2[C@H](NC(=O)[C@H](N)c3ccccc3)C(=O)N2[C@H]1C(=O)O [AMPICILLIN]	100 (≈ 286 µM)
N#CC1=C(N)OC2=C(C(=O)CCC2)C1c1c(-c2ccc(F)cc2)[nH]c2ccccc12 (centres undefined)	500 (≈ 1250 µM)
CC1(C)CC(=O)C2=C(C1)OC(N)=C(C#N)C2c1c(-c2ccc(Cl)cc2)[nH]c2ccccc12 (centres undefined)	62.5 (≈ 141 µM)
CC1(C)CC(=O)C2=C(C1)OC(N)=C(C#N)C2c1c(-c2ccc(F)cc2)[nH]c2ccccc12 (centres undefined)	200 (≈ 468 µM)
N#CC1=C(N)OC2=C(C(=O)CCC2)C1c1c(-c2ccc([N+](=O)[O-])cc2)[nH]c2ccccc12 (centres undefined)	500 (≈ 1170 µM)
CCn1cc(C(=O)O)c(=O)c2cc(F)c(N3CCNCC3)cc21 [NORFLOXACIN]	10 (≈ 31.3 µM)
CC1(C)CC(=O)C2=C(C1)OC(N)=C(C#N)C2c1c(-c2ccc(S(C)(=O)=O)cc2)[nH]c2ccccc12 (centres undefined)	100 (≈ 205 µM)
N#CC1=C(N)OC2=C(C(=O)CCC2)C1c1c(-c2ccccc2)[nH]c2ccccc12 (centres undefined)	500 (≈ 1310 µM)

system: Vibrio cholerae; assay: Antibacterial activity against Vibrio cholerae MTCC 3906 after 24 to 48 hr by broth microdilution method; type: functional

Compound	MIC [µg/mL]
O=C(O)c1cn(C2CC2)c2cc(N3CCNCC3)c(F)cc2c1=O [CIPROFLOXACIN]	25 (≈ 75.4 µM)
COc1ccc(-c2[nH]c3ccccc3c2C2C(C#N)=C(N)OC3=C2C(=O)CC(C)(C)C3)cc1 (centres undefined)	500 (≈ 1140 µM)
CC1(C)S[C@@H]2[C@H](NC(=O)[C@H](N)c3ccccc3)C(=O)N2[C@H]1C(=O)O [AMPICILLIN]	100 (≈ 286 µM)
N#CC1=C(N)OC2=C(C(=O)CCC2)C1c1c(-c2ccc(F)cc2)[nH]c2ccccc12 (centres undefined)	250 (≈ 626 µM)
CC1(C)CC(=O)C2=C(C1)OC(N)=C(C#N)C2c1c(-c2ccc(Cl)cc2)[nH]c2ccccc12 (centres undefined)	100 (≈ 225 µM)
CC1(C)CC(=O)C2=C(C1)OC(N)=C(C#N)C2c1c(-c2ccc(F)cc2)[nH]c2ccccc12 (centres undefined)	500 (≈ 1170 µM)
N#CC1=C(N)OC2=C(C(=O)CCC2)C1c1c(-c2ccc([N+](=O)[O-])cc2)[nH]c2ccccc12 (centres undefined)	500 (≈ 1170 µM)
CCn1cc(C(=O)O)c(=O)c2cc(F)c(N3CCNCC3)cc21 [NORFLOXACIN]	10 (≈ 31.3 µM)
CC1(C)CC(=O)C2=C(C1)OC(N)=C(C#N)C2c1c(-c2ccc(S(C)(=O)=O)cc2)[nH]c2ccccc12 (centres undefined)	500 (≈ 1030 µM)
N#CC1=C(N)OC2=C(C(=O)CCC2)C1c1c(-c2ccccc2)[nH]c2ccccc12 (centres undefined)	250 (≈ 655 µM)

system: Salmonella typhi; assay: Antibacterial activity against Salmonella enterica subsp. enterica serovar Typhi MTCC 98 after 24 to 48 hr by broth microdilution method; type: functional

Compound	MIC [µg/mL]
O=C(O)c1cn(C2CC2)c2cc(N3CCNCC3)c(F)cc2c1=O [CIPROFLOXACIN]	25 (≈ 75.4 µM)
COc1ccc(-c2[nH]c3ccccc3c2C2C(C#N)=C(N)OC3=C2C(=O)CC(C)(C)C3)cc1 (centres undefined)	500 (≈ 1140 µM)
CC1(C)S[C@@H]2[C@H](NC(=O)[C@H](N)c3ccccc3)C(=O)N2[C@H]1C(=O)O [AMPICILLIN]	100 (≈ 286 µM)
N#CC1=C(N)OC2=C(C(=O)CCC2)C1c1c(-c2ccc(F)cc2)[nH]c2ccccc12 (centres undefined)	500 (≈ 1250 µM)
CC1(C)CC(=O)C2=C(C1)OC(N)=C(C#N)C2c1c(-c2ccc(Cl)cc2)[nH]c2ccccc12 (centres undefined)	200 (≈ 451 µM)
CC1(C)CC(=O)C2=C(C1)OC(N)=C(C#N)C2c1c(-c2ccc(F)cc2)[nH]c2ccccc12 (centres undefined)	250 (≈ 585 µM)
N#CC1=C(N)OC2=C(C(=O)CCC2)C1c1c(-c2ccc([N+](=O)[O-])cc2)[nH]c2ccccc12 (centres undefined)	500 (≈ 1170 µM)
CCn1cc(C(=O)O)c(=O)c2cc(F)c(N3CCNCC3)cc21 [NORFLOXACIN]	10 (≈ 31.3 µM)
CC1(C)CC(=O)C2=C(C1)OC(N)=C(C#N)C2c1c(-c2ccc(S(C)(=O)=O)cc2)[nH]c2ccccc12 (centres undefined)	200 (≈ 410 µM)
N#CC1=C(N)OC2=C(C(=O)CCC2)C1c1c(-c2ccccc2)[nH]c2ccccc12 (centres undefined)	500 (≈ 1310 µM)

system: Bacillus subtilis; assay: Antibacterial activity against Bacillus subtilis MTCC 441 after 24 to 48 hr by broth microdilution method; type: functional

Compound	MIC [µg/mL]
COc1ccc(-c2[nH]c3ccccc3c2C2C(C#N)=C(N)OC3=C2C(=O)CC(C)(C)C3)cc1 (centres undefined)	500 (≈ 1140 µM)
CC1(C)S[C@@H]2[C@H](NC(=O)[C@H](N)c3ccccc3)C(=O)N2[C@H]1C(=O)O [AMPICILLIN]	250 (≈ 715 µM)
N#CC1=C(N)OC2=C(C(=O)CCC2)C1c1c(-c2ccc(F)cc2)[nH]c2ccccc12 (centres undefined)	200 (≈ 501 µM)
CC1(C)CC(=O)C2=C(C1)OC(N)=C(C#N)C2c1c(-c2ccc(Cl)cc2)[nH]c2ccccc12 (centres undefined)	250 (≈ 563 µM)
CC1(C)CC(=O)C2=C(C1)OC(N)=C(C#N)C2c1c(-c2ccc(F)cc2)[nH]c2ccccc12 (centres undefined)	100 (≈ 234 µM)
N#CC1=C(N)OC2=C(C(=O)CCC2)C1c1c(-c2ccc([N+](=O)[O-])cc2)[nH]c2ccccc12 (centres undefined)	250 (≈ 586 µM)
CCn1cc(C(=O)O)c(=O)c2cc(F)c(N3CCNCC3)cc21 [NORFLOXACIN]	100 (≈ 313 µM)
CC1(C)CC(=O)C2=C(C1)OC(N)=C(C#N)C2c1c(-c2ccc(S(C)(=O)=O)cc2)[nH]c2ccccc12 (centres undefined)	250 (≈ 513 µM)
N#CC1=C(N)OC2=C(C(=O)CCC2)C1c1c(-c2ccccc2)[nH]c2ccccc12 (centres undefined)	500 (≈ 1310 µM)

system: Clostridium tetani; assay: Antibacterial activity against Clostridium tetani MTCC 449 after 24 to 48 hr by broth microdilution method; type: functional

Compound	MIC [µg/mL]
COc1ccc(-c2[nH]c3ccccc3c2C2C(C#N)=C(N)OC3=C2C(=O)CC(C)(C)C3)cc1 (centres undefined)	500 (≈ 1140 µM)
CC1(C)S[C@@H]2[C@H](NC(=O)[C@H](N)c3ccccc3)C(=O)N2[C@H]1C(=O)O [AMPICILLIN]	250 (≈ 715 µM)
N#CC1=C(N)OC2=C(C(=O)CCC2)C1c1c(-c2ccc(F)cc2)[nH]c2ccccc12 (centres undefined)	500 (≈ 1250 µM)
CC1(C)CC(=O)C2=C(C1)OC(N)=C(C#N)C2c1c(-c2ccc(Cl)cc2)[nH]c2ccccc12 (centres undefined)	250 (≈ 563 µM)
CC1(C)CC(=O)C2=C(C1)OC(N)=C(C#N)C2c1c(-c2ccc(F)cc2)[nH]c2ccccc12 (centres undefined)	200 (≈ 468 µM)
N#CC1=C(N)OC2=C(C(=O)CCC2)C1c1c(-c2ccc([N+](=O)[O-])cc2)[nH]c2ccccc12 (centres undefined)	250 (≈ 586 µM)
CCn1cc(C(=O)O)c(=O)c2cc(F)c(N3CCNCC3)cc21 [NORFLOXACIN]	50 (≈ 157 µM)
CC1(C)CC(=O)C2=C(C1)OC(N)=C(C#N)C2c1c(-c2ccc(S(C)(=O)=O)cc2)[nH]c2ccccc12 (centres undefined)	125 (≈ 256 µM)
N#CC1=C(N)OC2=C(C(=O)CCC2)C1c1c(-c2ccccc2)[nH]c2ccccc12 (centres undefined)	500 (≈ 1310 µM)

system: Streptococcus pneumoniae; assay: Antibacterial activity against Streptococcus pneumoniae MTCC 1936 after 24 to 48 hr by broth microdilution method; type: functional

Compound	MIC [µg/mL]
O=C(O)c1cn(C2CC2)c2cc(N3CCNCC3)c(F)cc2c1=O [CIPROFLOXACIN]	50 (≈ 151 µM)
COc1ccc(-c2[nH]c3ccccc3c2C2C(C#N)=C(N)OC3=C2C(=O)CC(C)(C)C3)cc1 (centres undefined)	500 (≈ 1140 µM)
CC1(C)S[C@@H]2[C@H](NC(=O)[C@H](N)c3ccccc3)C(=O)N2[C@H]1C(=O)O [AMPICILLIN]	100 (≈ 286 µM)
N#CC1=C(N)OC2=C(C(=O)CCC2)C1c1c(-c2ccc(F)cc2)[nH]c2ccccc12 (centres undefined)	200 (≈ 501 µM)
CC1(C)CC(=O)C2=C(C1)OC(N)=C(C#N)C2c1c(-c2ccc(Cl)cc2)[nH]c2ccccc12 (centres undefined)	250 (≈ 563 µM)
CC1(C)CC(=O)C2=C(C1)OC(N)=C(C#N)C2c1c(-c2ccc(F)cc2)[nH]c2ccccc12 (centres undefined)	200 (≈ 468 µM)
N#CC1=C(N)OC2=C(C(=O)CCC2)C1c1c(-c2ccc([N+](=O)[O-])cc2)[nH]c2ccccc12 (centres undefined)	250 (≈ 586 µM)
CCn1cc(C(=O)O)c(=O)c2cc(F)c(N3CCNCC3)cc21 [NORFLOXACIN]	10 (≈ 31.3 µM)
CC1(C)CC(=O)C2=C(C1)OC(N)=C(C#N)C2c1c(-c2ccc(S(C)(=O)=O)cc2)[nH]c2ccccc12 (centres undefined)	500 (≈ 1030 µM)
N#CC1=C(N)OC2=C(C(=O)CCC2)C1c1c(-c2ccccc2)[nH]c2ccccc12 (centres undefined)	500 (≈ 1310 µM)
